Measurements reported in patent US20260092179A1, “GENETICALLY MODIFIED HOST CELLS PRODUCING VIOLACEIN, ANALOGUES, AND DERIVATIVES THEREOF” (OCTARINE BIO APS, priority 2022, published 2026).

Tests used:
[1] = Free radical scavenging ability of dyed Nylon 6,6 fabric (DPPH); type: biochemical; conditions: dyed Nylon 6,6 fabric strip
Experimental: Violacein is reported as being a potent antioxidant able to effectively scavenge free radicals. […] To test this, 1.5×1.5 cm dyed Nylon 6,6 fabric strips were incubated in the dark at room temperature for 1 h in 5 mL of a 5×10^−5 M DPPH free radical solution in 100% ethanol. Undyed Nylon 6,6 fabric strips were included as a negative control. After 1 h absorbance was measured at 517 nm and % scavenging ability calculated as above.

[2] = UV stability of dyed fabrics (colour fastness, ΔE); type: physicochemical; conditions: for ΔE: before vs after UV lamp, room temperature, 1 h
Experimental: (§1) In order to assess the stability and colour fastness of violacein and violacein derivatives dyed onto fabrics, dyed fabrics were subjected to a number of conditions. Fabrics were dyed according to Example 18 and colour coordinates and colour change before and after exposure to a given condition were determined as described in Example 18. To measure temperature stability, fabrics were incubated in an oven set to 80° c. for 4 h. To measure stability under acid and alkaline conditions, fabrics were fully submerged in water solutions set to pH 8 with NaOH and pH 5 with HCl and incubated at room temperature for 30 minutes. Fabrics were then incubated at 37° c. for 4 h. To measure stability during laundering, fabrics were washed at 30° c. under the “mix” setting of a Siemens IQ300 washing machine, then dried in a Siemens IQ300 dryer until dry. To measure artificial light stability, fabrics were placed under an LED lamp at room temperature for 16 h. To measure UV light stability, fabrics were placed under a UV lamp at room temperature for 1 h.

[3] = Stability during laundering of dyed fabrics (colour fastness, ΔE); type: physicochemical; conditions: washed at 30° c.
Experimental: as §1

[4] = Temperature stability of dyed fabrics (colour fastness, ΔE); type: physicochemical; conditions: oven 80° c. for 4 h; for ΔE: before and after the stability test
Experimental: as §1

[5] = Acrylic, after test (UV lamp, room temperature, 1 h)
[6] = Bleached cotton, after test (UV lamp, room temperature, 1 h)
[7] = Diacetate, after test (UV lamp, room temperature, 1 h)
[8] = Nylon 6,6, after test (UV lamp, room temperature, 1 h)
[9] = Polyester, after test (UV lamp, room temperature, 1 h)
[10] = Wool, after test (UV lamp, room temperature, 1 h)

- L [2, 5]: 61.34
- a [2, 5]: 2.05
- b [2, 5]: −2.89
- L ([2]; Acrylic, before test): 60.15
- a ([2]; Acrylic, before test): 1.07
- b ([2]; Acrylic, before test): −2.07
- ΔE ([2]; Acrylic): 1.75
- L [2, 6]: 62.17
- a [2, 6]: 1.62
- b [2, 6]: −6.68
- L ([2]; Bleached cotton, before test): 61.4
- a ([2]; Bleached cotton, before test): 1.8
- b ([2]; Bleached cotton, before test): −7.92
- ΔE ([2]; Bleached cotton): 1.47
- L [2, 7]: 53.68
- a [2, 7]: 8.75
- b [2, 7]: −10.95
- L ([2]; Diacetate, before test): 52.05
- a ([2]; Diacetate, before test): 9.98
- b ([2]; Diacetate, before test): −14.88
- ΔE ([2]; Diacetate): 4.43
- L [2, 8]: 46.19
- a [2, 8]: 4.4
- b [2, 8]: −19.75
- L ([2]; Nylon 6,6, before test): 45.92
- a ([2]; Nylon 6,6, before test): 4.94
- b ([2]; Nylon 6,6, before test): −21.23
- ΔE ([2]; Nylon 6,6): 1.60
- L [2, 9]: 67.09
- a [2, 9]: 1.19
- b [2, 9]: −3.68
- L ([2]; Polyester, before test): 66.55
- a ([2]; Polyester, before test): 1.03
- b ([2]; Polyester, before test): −2.87
- ΔE ([2]; Polyester): 0.99
- L [2, 10]: 67.65
- a [2, 10]: 0.75
- b [2, 10]: 1.17
- L ([2]; Wool, before test): 65.56
- a ([2]; Wool, before test): 0.65
- b ([2]; Wool, before test): 0.31
- ΔE ([2]; Wool): 2.26
- L ([3]; Acrylic, After test): 69.42
- a ([3]; Acrylic, After test): −1.13
- b ([3]; Acrylic, After test): 0.45
- L ([3]; Acrylic, Before test): 60.9
- a ([3]; Acrylic, Before test): 0.39
- b ([3]; Acrylic, Before test): −2.66
- ΔE ([3]; Acrylic, before and after the stability test): 9.20
- L ([3]; Bleached cotton, After test): 69.57
- a ([3]; Bleached cotton, After test): 0.39
- b ([3]; Bleached cotton, After test): −5.93
- L ([3]; Bleached cotton, Before test): 61.14
- a ([3]; Bleached cotton, Before test): 0.73
- b ([3]; Bleached cotton, Before test): −8.03
- ΔE ([3]; Bleached cotton, before and after the stability test): 8.69
- L ([3]; Diacetate, After test): 54.82
- a ([3]; Diacetate, After test): 10.32
- b ([3]; Diacetate, After test): −14.22
- L ([3]; Diacetate, Before test): 50.89
- a ([3]; Diacetate, Before test): 9.08
- b ([3]; Diacetate, Before test): −15.27
- ΔE ([3]; Diacetate, before and after the stability test): 4.25
- L ([3]; Nylon 6,6, After test): 47.79
- a ([3]; Nylon 6,6, After test): 6.03
- b ([3]; Nylon 6,6, After test): −20.63
- L ([3]; Nylon 6,6, Before test): 44.46
- a ([3]; Nylon 6,6, Before test): 6.19
- b ([3]; Nylon 6,6, Before test): −22.02
- ΔE ([3]; Nylon 6,6, before and after the stability test): 3.61
- L ([3]; Polyester, After test): 74.17
- a ([3]; Polyester, After test): −0.99
- b ([3]; Polyester, After test): −0.58
- L ([3]; Polyester, Before test): 64.92
- a ([3]; Polyester, Before test): 1.08
- b ([3]; Polyester, Before test): −5.1
- ΔE ([3]; Polyester, before and after the stability test): 10.50
- L ([3]; Wool, After test): 72.9
- a ([3]; Wool, After test): −0.9
- b ([3]; Wool, After test): 3.2
- L ([3]; Wool, Before test): 63.37
- a ([3]; Wool, Before test): −0.25
- b ([3]; Wool, Before test): −1.82
- ΔE ([3]; Wool, before and after the stability test): 10.79
- L ([4]; Acrylic, After test): 59.66
- a ([4]; Acrylic, After test): 0.86
- b ([4]; Acrylic, After test): −2.82
- L ([4]; Acrylic, Before test): 59.1
- a ([4]; Acrylic, Before test): 1.55
- b ([4]; Acrylic, Before test): −1.29
- ΔE ([4]; Acrylic): 1.77
- L ([4]; Bleached cotton, After test): 63.74
- a ([4]; Bleached cotton, After test): 2.09
- b ([4]; Bleached cotton, After test): −8.13
- L ([4]; Bleached cotton, Before test): 63.16
- a ([4]; Bleached cotton, Before test): 1.56
- b ([4]; Bleached cotton, Before test): −7.66
- ΔE ([4]; Bleached cotton): 0.92
- L ([4]; Diacetate, After test): 51.96
- a ([4]; Diacetate, After test): 10.78
- b ([4]; Diacetate, After test): −13.7
- L ([4]; Diacetate, Before test): 51.65
- a ([4]; Diacetate, Before test): 10.65
- b ([4]; Diacetate, Before test): −14.56
- ΔE ([4]; Diacetate): 0.92
- L ([4]; Nylon 6,6, After test): 45.2
- a ([4]; Nylon 6,6, After test): 6.79
- b ([4]; Nylon 6,6, After test): −21.25
- L ([4]; Nylon 6,6, Before test): 44.99
- a ([4]; Nylon 6,6, Before test): 6.18
- b ([4]; Nylon 6,6, Before test): −21.43
- ΔE ([4]; Nylon 6,6): 0.67
- L ([4]; Polyester, After test): 65.03
- a ([4]; Polyester, After test): 2.08
- b ([4]; Polyester, After test): −2.03
- L ([4]; Polyester, Before test): 64.62
- a ([4]; Polyester, Before test): 1.61
- b ([4]; Polyester, Before test): −2.79
- ΔE ([4]; Polyester): 0.98
- L ([4]; Wool, After test): 66.12
- a ([4]; Wool, After test): 1.93
- b ([4]; Wool, After test): −0.48
- L ([4]; Wool, Before test): 66.67
- a ([4]; Wool, Before test): −0.09
- b ([4]; Wool, Before test): −0.62
- ΔE ([4]; Wool): 2.10
SMILES: O=C1NC(c2c[nH]c3ccccc23)=C/C1=C1\C(=O)Nc2ccccc21 [deoxyviolacein]
- OD517 ([1]; 1 h in the dark in 5×10^−5 M DPPH in 100% ethanol): 1.43
- Scavenging ability % ([1]; 1 h in the dark in 5×10^−5 M DPPH, vs undyed control): 37.05%
